Experimental data: patent US20260102359A1, “COMBINATION TREATMENT OF DERMAL AND TRANSDERMAL FIBROTIC DISEASES, DISORDERS AND ASSOCIATED PAIN AND INFLAMMATION” (ERESINA, LLC, priority 2022, published 2026)
Where a name gives a salt, the structure may show the parent alone. *1 amine or outer side, *2 acyl side, *3 side chain or, on linkers, in order; H or OH if unused. Where a SMILES comes first, the peptide text is derived from it. Bridges are numbered along the chain shown (N, C = ends). [ ]: non-standard residue; d: D form. The star is where a group is joined. pTerphenylCO(4''-OnC5H11) = CCCCCOc1ccc(-c2ccc(-c3ccc(C(=O)*)cc3)cc2)cc1; Orn(4R-OH,5R-OH) = O=C([C@H](C[C@@H](O)[C@@H](O)N[*:3])N[*:1])[*:2]; hTyr(3S-OH,4S-OH) = N[C@H](C(=O)O)[C@H](O)[C@@H](O)c1ccc(O)cc1; Pro(3S-OH,4S-Me) = C[C@H]1CN[C@H](C(=O)O)[C@H]1O; Hyp = O=C(O)[C@@H]1C[C@@H](O)CN1

These molecules were tested on hDMFa myofibroblast cells (assay: Myofibroblast cytotoxicity, MTS cell viability assay). Conditions: 8-12 hours in serum-free inhibitor media, […].
NCCC(=O)N[C@@H](Cc1cnc[nH]1)C(=O)O [Cmpd 568, L-Carnosine] was tested, and the “Compound Myofibroblast Cytotoxicity Activity” value was 8. For C#C[C@]1(O)CC[C@H]2[C@@H]3CCC4=CCCC[C@@H]4[C@H]3CC[C@@]21C [Cmpd 623, Lynestrenol], the “Compound Myofibroblast Cytotoxicity Activity” value was “+++++”. In the case of CN(C)CCC=C1c2ccccc2C(C)(C)c2ccccc21 [Cmpd 647, Melitracen hydrochloride], the “Compound Myofibroblast Cytotoxicity Activity” value is reported as “+++++”. CC(=O)Oc1cc(C)c(OC(C)=O)c2ccccc12 [Cmpd 650, Menadiol Diacetate] was tested, and the “Compound Myofibroblast Cytotoxicity Activity” value was “+++++”. CCCCCCCCN=c1ccn(CCCCCCCCCCn2ccc(=NCCCCCCCC)cc2)cc1 [Cmpd 730, Octenidine (dihydrochloride)] was tested, and the “Compound Myofibroblast Cytotoxicity Activity” value was “+++++”. In the case of CC1(C)CC[C@]2(C(=O)O)CC[C@]3(C)C(=CC[C@@H]4[C@@]5(C)CC[C@H](O)C(C)(C)[C@@H]5CC[C@]43C)[C@@H]2C1 [Cmpd 732, Oleanolic acid], the “Compound Myofibroblast Cytotoxicity Activity” value is reported as “+++++”. CCCCCCCCCCCCCCCCCCOP(=O)([O-])OC1CC[N+](C)(C)CC1 [Cmpd 771, Perifosine] was tested, and the “Compound Myofibroblast Cytotoxicity Activity” value was “+++++”. With O=C1[C@H]2CCCC[C@H]2C(=O)N1CCCCN1CCN(c2nsc3ccccc23)CC1 [Cmpd 772, Perospirone hydrochloride] the “Compound Myofibroblast Cytotoxicity Activity” value was “+++++”. In the case of Nc1ccc2cc3ccc(N)cc3nc2c1.Nc1ccc2cc3ccc(N)cc3nc2c1.O=S(=O)(O)O [Cmpd 798, Proflavine Hemisulfate], the “Compound Myofibroblast Cytotoxicity Activity” value is reported as “+++++”.

Same assay, conditions: 8-12 hours in serum-free inhibitor media, […], HCl
With Cl.NCCCC[C@H](N)C(=O)O [Cmpd 597, L-Lysine HCl] the “Compound Myofibroblast Cytotoxicity Activity” value was “+”.

Same assay, conditions: MTS viability, 8-12 hours incubation in serum-free inhibitor media, normalized to negative control
For CCCCCCCCCCCC[N+](C)(C)CCOc1ccccc1 [Cmpd 377, Domiphen Bromide], the “Compound Myofibroblast Cytotoxicity Activity” value was “+++++”. CO[C@H]1C[C@H](O[C@H]2[C@H](C)O[C@@H](O[C@@H]3/C(C)=C/C[C@@H]4C[C@@H](C[C@]5(C=C[C@H](C)[C@@H](C6CCCCC6)O5)O4)OC(=O)[C@@H]4C=C(C)[C@@H](O)[C@H]5OC/C(=C\C=C\[C@@H]3C)[C@]54O)C[C@@H]2OC)O[C@@H](C)[C@@H]1O [Cmpd 379, Doramectin] was tested, and the “Compound Myofibroblast Cytotoxicity Activity” value was “+++++”. CC(C)(C)c1cc(C(C)(C)C)c(NC(=O)c2c[nH]c3ccccc3c2=O)cc1O [Cmpd 545, Ivacaftor (VX-770)] was tested, and the “Compound Myofibroblast Cytotoxicity Activity” value was “+++++”.

Same assay, conditions: serum-free media with inhibitor 8-12 hours, MTS cell viability, inhibition normalized as percentage of negative control
OCCCCCCCCO [Cmpd 38, 1,8-Octanediol] was tested, and the “Compound Myofibroblast Cytotoxicity Activity” value was “+”. With Cc1cc(O)cc(C(C)C)c1 [Cmpd 53] the “Compound Myofibroblast Cytotoxicity Activity” value was “+”. In the case of CCCCCOc1ccc(-c2ccc(-c3ccc(C(=O)N[C@H]4C[C@@H](O)[C@@H](O)NC(=O)[C@@H]5[C@@H](O)[C@@H](C)CN5C(=O)[C@H]([C@@H](C)O)NC(=O)[C@H]([C@H](O)[C@@H](O)c5ccc(O)cc5)NC(=O)[C@@H]5C[C@@H](O)CN5C(=O)[C@H]([C@@H](C)O)NC4=O)cc3)cc2)cc1 [Cmpd 124, Anidulafungin] ({pTerphenylCO(4''-OnC5H11)}-[Orn(4R-OH,5R-OH)]T[Hyp][hTyr(3S-OH,4S-OH)]T[Pro(3S-OH,4S-Me)]; lactam 1-C), the “Compound Myofibroblast Cytotoxicity Activity” value is reported as “+++++”. In the case of C[C@H]1[C@H](C)CC[C@]2(C(=O)O)CC[C@]3(C)C(=CC[C@@H]4[C@@]5(C)C[C@@H](O)[C@H](O)[C@@](C)(CO)[C@@H]5CC[C@]43C)[C@H]12 [Cmpd 135, Asiatic acid], the “Compound Myofibroblast Cytotoxicity Activity” value is reported as “+++++”. For CC1=C(C(=O)OC(C)C)C(c2cccc([N+](=O)[O-])c2)C(C(=O)OC2CN(C(c3ccccc3)c3ccccc3)C2)=C(N)N1 (stereo not shown) [Cmpd 148, Azelnidipine], the “Compound Myofibroblast Cytotoxicity Activity” value was “+++++”. With COC(=O)OCOc1c2n(ccc1=O)N([C@@H]1c3ccccc3SCc3c1ccc(F)c3F)[C@@H]1COCCN1C2=O [Cmpd 155, Baloxavir marboxil] the “Compound Myofibroblast Cytotoxicity Activity” value was “+++++”. For Cc1ccc([C@@H]2O[C@H](CO)[C@@H](O)[C@H](O)[C@H]2O)cc1Cc1ccc(-c2ccc(F)cc2)s1 [Cmpd 208, Canagliflozin], the “Compound Myofibroblast Cytotoxicity Activity” value was “+++++”. In the case of CCCCCCCCCCCCCCCC[N+](C)(C)C.[Br-] [Cmpd 242, Cetrimonium Bromide (CTAB)], the “Compound Myofibroblast Cytotoxicity Activity” value is reported as “+++++”. In the case of COc1ccc2c(c[n+](C)c3c4cc5c(cc4ccc23)OCO5)c1OC.[Cl-] [Cmpd 244, Chelerythrine Chloride], the “Compound Myofibroblast Cytotoxicity Activity” value is reported as “+++++”.

Same assay, conditions: serum-free media with inhibitor 8-12 hours, MTS viability normalized to negative control
COc1ccc2c(O[C@@H]3C[C@H]4C(=O)N[C@]5(C(=O)NS(=O)(=O)C6CC6)C[C@H]5/C=C\CCCCN(C)C(=O)[C@@H]4C3)cc(-c3nc(C(C)C)cs3)nc2c1C [Cmpd 863, Simeprevir] was tested, and the “Compound Myofibroblast Cytotoxicity Activity” value was “+++++”. CN[C@@H]1C[C@H]2O[C@@](C)([C@@H]1OC)n1c3ccccc3c3c4c(c5c6ccccc6n2c5c31)C(=O)NC4 [Cmpd 888, Staurosporine] was tested, and the “Compound Myofibroblast Cytotoxicity Activity” value was “+++++”. With Cc1ccc(Sc2ccccc2N2CCNCC2)c(C)c1 [Cmpd 1011, Vortioxetine] the “Compound Myofibroblast Cytotoxicity Activity” value was “+++++”. In the case of Br.Cc1ccc(Sc2ccccc2N2CCNCC2)c(C)c1 [Cmpd 1012, Vortioxetine (Lu AA21004) HBr], the “Compound Myofibroblast Cytotoxicity Activity” value is reported as “+++++”. Sericin Gel [Cmpd 859] was tested, and the “Compound Myofibroblast Cytotoxicity Activity” value was “+”. Sodium Aescinate [Cmpd 869] was tested, and the “Compound Myofibroblast Cytotoxicity Activity” value was “+++++”.

These molecules were tested on hDMFa myofibroblast cells (assay: not given). Conditions: not given.
With Cilengitide [Cmpd 261] the “Compound Myofibroblast Cytotoxicity Activity” value was “++++”. In the case of Cyclo(RGDyK) [Cmpd 303], the “Compound Myofibroblast Cytotoxicity Activity” value is reported as “++”. In the case of D-(−)-Isoascorbic Acid [Cmpd 306], the “Compound Myofibroblast Cytotoxicity Activity” value is reported as “+”. In the case of Fumalic acid [Cmpd 474], the “Compound Myofibroblast Cytotoxicity Activity” value is reported as “++”. For Icatibant Acetate [Cmpd 514], the “Compound Myofibroblast Cytotoxicity Activity” value was “++”. In the case of Lecithin, Soybean [Cmpd 577], the “Compound Myofibroblast Cytotoxicity Activity” value is reported as “+”. With Teicoplanin [Cmpd 921] the “Compound Myofibroblast Cytotoxicity Activity” value was “+++”. With Zinc Pyrithione [Cmpd 1026] the “Compound Myofibroblast Cytotoxicity Activity” value was “+++++”. For beta-Alanine [Cmpd 174], the “Compound Myofibroblast Cytotoxicity Activity” value was “++++”.
